In ChEMBL document CHEMBL4190297, “Cafestol, a Bioactive Substance in Coffee, Has Antidiabetic Properties in KKAy Mice” (J Nat Prod, 2017):
Active and inactive are the calls of the source. No cut-off for these calls is given here.

What was measured:
[1] = species on record: Mus musculus; test: Antidiabetic activity in KK-Ay diabetic mouse model assessed as non-fasting blood glucose level at 0.4 mg added daily to normal chow pellets for 10 weeks (reference value: 26.2 +/- 1.2 mmol/L); type: functional
[2] = species on record: Mus musculus; test: Antidiabetic activity in KK-Ay diabetic mouse model assessed as non-fasting blood glucose level at 1.1 mg added daily to normal chow pellets for 10 weeks (reference value: 26.2 +/- 1.2 mmol/L); type: functional
[3] = species on record: Mus musculus; test: Antidiabetic activity in KK-Ay diabetic mouse model assessed as reduction in plasma glucagon levels at 0.4 mg added daily to normal chow pellets for 10 weeks relative to control by radioimmunoassay; type: functional; design: scale not given: the % may be the effect or the level left
[4] = species on record: Mus musculus; test: Effect on IRS2 mRNA expression levels in adipose tissue of KK-Ay diabetic mouse model at 0.4 to 1.1 mg added daily to normal chow pellets for 10 weeks by qRT-PCR analysis; type: functional, organism-based
[5] = species on record: Mus musculus; test: Effect on InsR mRNA expression levels in adipose tissue of KK-Ay diabetic mouse model at 0.4 to 1.1 mg added daily to normal chow pellets for 10 weeks by qRT-PCR analysis; type: functional, organism-based
[6] = species on record: Mus musculus; test: Effect on Hprt1 mRNA expression levels in adipose tissue of KK-Ay diabetic mouse model at 0.4 to 1.1 mg added daily to normal chow pellets for 10 weeks by qRT-PCR analysis; type: functional, organism-based
[7] = species on record: Mus musculus; test: Effect on FABP4 mRNA expression levels in adipose tissue of KK-Ay diabetic mouse model at 0.4 to 1.1 mg added daily to normal chow pellets for 10 weeks by qRT-PCR analysis; type: functional, organism-based
[8] = species on record: Mus musculus; test: Effect on CD36 mRNA expression levels in adipose tissue of KK-Ay diabetic mouse model at 0.4 to 1.1 mg added daily to normal chow pellets for 10 weeks by qRT-PCR analysis; type: functional, organism-based
[9] = species on record: Mus musculus; test: Effect on Akt2 mRNA expression levels in adipose tissue of KK-Ay diabetic mouse model at 0.4 to 1.1 mg added daily to normal chow pellets for 10 weeks by qRT-PCR analysis; type: functional, organism-based
[10] = species on record: Mus musculus; test: Effect on 18s rRNA expression levels in adipose tissue of KK-Ay diabetic mouse model at 0.4 to 1.1 mg added daily to normal chow pellets for 10 weeks by qRT-PCR analysis; type: functional, organism-based
[11] = species on record: Mus musculus; test: Effect on SOD1 mRNA expression levels in muscle of KK-Ay diabetic mouse model at 0.4 to 1.1 mg added daily to normal chow pellets for 10 weeks by qRT-PCR analysis; type: functional, organism-based
[12] = species on record: Mus musculus; test: Effect on PKCdelta mRNA expression levels in muscle of KK-Ay diabetic mouse model at 0.4 to 1.1 mg added daily to normal chow pellets for 10 weeks by qRT-PCR analysis; type: functional, organism-based
[13] = species on record: Mus musculus; test: Effect on JNK1 mRNA expression levels in muscle of KK-Ay diabetic mouse model at 0.4 to 1.1 mg added daily to normal chow pellets for 10 weeks by qRT-PCR analysis; type: functional, organism-based
[14] = species on record: Mus musculus; test: Effect on GLUT2 mRNA expression levels in muscle of KK-Ay diabetic mouse model at 0.4 to 1.1 mg added daily to normal chow pellets for 10 weeks by qRT-PCR analysis; type: functional, organism-based
[15] = species on record: Mus musculus; test: Effect on G6PD mRNA expression levels in muscle of KK-Ay diabetic mouse model at 0.4 to 1.1 mg added daily to normal chow pellets for 10 weeks by qRT-PCR analysis; type: functional, organism-based
[16] = species on record: Mus musculus; test: Effect on FABP4 mRNA expression levels in muscle of KK-Ay diabetic mouse model at 0.4 to 1.1 mg added daily to normal chow pellets for 10 weeks by qRT-PCR analysis; type: functional, organism-based
[17] = species on record: Mus musculus; test: Effect on CD36 mRNA expression levels in muscle of KK-Ay diabetic mouse model at 0.4 to 1.1 mg added daily to normal chow pellets for 10 weeks by qRT-PCR analysis; type: functional, organism-based
[18] = species on record: Mus musculus; test: Effect on Acaca mRNA expression levels in muscle of KK-Ay diabetic mouse model at 0.4 to 1.1 mg added daily to normal chow pellets for 10 weeks by qRT-PCR analysis; type: functional, organism-based
[19] = species on record: Mus musculus; test: Effect on Abca1 mRNA expression levels in muscle of KK-Ay diabetic mouse model at 0.4 to 1.1 mg added daily to normal chow pellets for 10 weeks by qRT-PCR analysis; type: functional, organism-based
[20] = species on record: Mus musculus; test: Effect on PPARgamma mRNA expression levels in liver of KK-Ay diabetic mouse model at 0.4 to 1.1 mg added daily to normal chow pellets for 10 weeks by qRT-PCR analysis; type: functional, organism-based
[21] = species on record: Mus musculus; test: Effect on PPARGC1alpha mRNA expression levels in liver of KK-Ay diabetic mouse model at 0.4 to 1.1 mg added daily to normal chow pellets for 10 weeks by qRT-PCR analysis; type: functional, organism-based
[22] = species on record: Mus musculus; test: Effect on PKCdelta mRNA expression levels in liver of KK-Ay diabetic mouse model at 0.4 to 1.1 mg added daily to normal chow pellets for 10 weeks by qRT-PCR analysis; type: functional, organism-based
[23] = species on record: Mus musculus; test: Effect on FABP4 mRNA expression levels in liver of KK-Ay diabetic mouse model at 0.4 to 1.1 mg added daily to normal chow pellets for 10 weeks by qRT-PCR analysis; type: functional, organism-based
[24] = species on record: Mus musculus; test: Effect on AMPKalpha2 mRNA expression levels in liver of KK-Ay diabetic mouse model at 0.4 to 1.1 mg added daily to normal chow pellets for 10 weeks by qRT-PCR analysis; type: functional, organism-based
[25] = species on record: Mus musculus; test: Effect on Akt2 mRNA expression levels in liver of KK-Ay diabetic mouse model at 0.4 to 1.1 mg added daily to normal chow pellets for 10 weeks by qRT-PCR analysis; type: functional, organism-based
[26] = species on record: Mus musculus; test: Effect on Adipor1 mRNA expression levels in liver of KK-Ay diabetic mouse model at 0.4 to 1.1 mg added daily to normal chow pellets for 10 weeks by qRT-PCR analysis; type: functional, organism-based
[27] = species on record: Mus musculus; test: Effect on Abca1 mRNA expression levels in liver of KK-Ay diabetic mouse model at 0.4 to 1.1 mg added daily to normal chow pellets for 10 weeks by qRT-PCR analysis; type: functional, organism-based
[28] = species on record: Mus musculus; test: Effect on 18s rRNA expression levels in liver of KK-Ay diabetic mouse model at 0.4 to 1.1 mg added daily to normal chow pellets for 10 weeks by qRT-PCR analysis; type: functional, organism-based
[29] = species on record: Mus musculus; test: Effect on water-fat fraction in liver of KK-Ay diabetic mouse model at 0.4 to 1.1 mg added daily to normal chow pellets for 10 weeks by MR spectroscopic analysis; type: functional, organism-based
[30] = species on record: Mus musculus; test: Effect on PPARGC1alpha mRNA expression levels in adipose tissue of KK-Ay diabetic mouse model at 0.4 to 1.1 mg added daily to normal chow pellets for 10 weeks by qRT-PCR analysis; type: functional, organism-based
[31] = species on record: Mus musculus; test: Toxicity in KK-Ay diabetic mouse model assessed as effect on body weight at 0.4 mg added daily to normal chow pellets for 4 weeks; type: organism-based; details: in vivo, po, 672 h
[32] = species on record: Mus musculus; test: Effect on PPARgamma mRNA expression levels in adipose tissue of KK-Ay diabetic mouse model at 0.4 to 1.1 mg added daily to normal chow pellets for 10 weeks by qRT-PCR analysis; type: functional, organism-based
[33] = species on record: Mus musculus; test: Effect on SOD1 mRNA expression levels in adipose tissue of KK-Ay diabetic mouse model at 0.4 to 1.1 mg added daily to normal chow pellets for 10 weeks by qRT-PCR analysis; type: functional, organism-based

**Q.** How did the Activity [1] turn out when `C[C@@]12CCc3occc3[C@H]1CC[C@@]13C[C@H](CC[C@H]12)[C@@](O)(CO)C3` was run?
**A.** The Activity was 17.3 mmol/L.

**Q.** And the Activity [2]?
**A.** Its Activity is 19.7 mmol/L.

**Q.** What about the Activity [3] of the same compound?
**A.** Its Activity is 28%.

**Q.** And the Activity [4]?
**A.** Its Activity is “inactive”.

**Q.** What about the Activity [5] of the same compound?
**A.** Its Activity is “inactive”.

**Q.** What about the Activity [6] of the same compound?
**A.** Its Activity is “inactive”.

**Q.** What about the Activity [7] of the same compound?
**A.** Its Activity is “inactive”.

**Q.** And the Activity [8]?
**A.** The Activity was “inactive”.

**Q.** And the Activity [9]?
**A.** The Activity was “inactive”.

**Q.** And the Activity [10]?
**A.** The Activity was “inactive”.

**Q.** What about the Activity [11] of the same compound?
**A.** Its Activity is “inactive”.

**Q.** And the Activity [12]?
**A.** Its Activity is “inactive”.

**Q.** And the Activity [13]?
**A.** The Activity was “inactive”.

**Q.** And the Activity [14]?
**A.** The Activity was “inactive”.

**Q.** And the Activity [15]?
**A.** The Activity was “inactive”.

**Q.** What about the Activity [16] of the same compound?
**A.** Its Activity is “inactive”.

**Q.** And the Activity [17]?
**A.** Its Activity is “inactive”.

**Q.** What about the Activity [18] of the same compound?
**A.** Its Activity is “inactive”.

**Q.** What about the Activity [19] of the same compound?
**A.** The Activity was “inactive”.

**Q.** What about the Activity [20] of the same compound?
**A.** Its Activity is “inactive”.

**Q.** And the Activity [21]?
**A.** Its Activity is “inactive”.

**Q.** And the Activity [22]?
**A.** The Activity was “inactive”.

**Q.** What about the Activity [23] of the same compound?
**A.** Its Activity is “inactive”.

**Q.** What about the Activity [24] of the same compound?
**A.** The Activity was “inactive”.

**Q.** And the Activity [25]?
**A.** The Activity was “inactive”.

**Q.** And the Activity [26]?
**A.** Its Activity is “inactive”.

**Q.** What about the Activity [27] of the same compound?
**A.** Its Activity is “inactive”.

**Q.** What about the Activity [28] of the same compound?
**A.** The Activity was “inactive”.

**Q.** And the Activity [29]?
**A.** Its Activity is “inactive”.

**Q.** What about the Activity [30] of the same compound?
**A.** The Activity was “inactive”.

**Q.** And the Activity [31]?
**A.** The Activity was “Non-Toxic”.

**Q.** What about the Activity [32] of the same compound?
**A.** The Activity was “inactive”.

**Q.** And the Activity [33]?
**A.** Its Activity is “inactive”.
